Experiments:
Rat (Wistar) = test: Novel object recognition memory; assay type: in vivo; settings: for Minimum Effective Dose, novel object recognition memory: Rat (Wistar), IP
Protocol: Additional Novel Object Recognition behavioral model studies were conducted to further elucidate the SCI recovery activities of CX717 and CX1739. Rats were habituated to a test box for two 5-minute sessions on consecutive days. Each test session consisted of two phases: in the first phase (“sample period”), two identical objects (A1 and A2) were placed in the far corners of the box, and the rats were allowed to explore the objects. After a 24 hour delay, rats were re-introduced to the arena (“test period”) now containing a third identical copy of the familiar object (A3) and a new object (B), placed in the same locations as in the first phase, and the total time spent exploring each of the objects was determined over a 3-min duration. For CX717 drug treatment, rats were dosed 30 min prior to each sample session with either 0.1, 0.3, 1.0 mg/kg CX717 (p.o.); vehicle (0.5% methylcellulose, p.o.) or 0.9 mg/kg Aricept (E2020, i.p.). The exploration times for the full 3-min were calculated and expressed as the discrimination index, d1, defined as the absolute difference in time spent exploring the novel object minus the familiar object.
For CX1739 Male Wistar rats were assessed for cognitive ability in a test apparatus comprising an open-field arena placed in a sound-attenuated room under dimmed lighting. Rat exploration and activity were captured by a digital camera, and viewed on a monitor in an adjoining area. Following a 5-minute habituation period, each animal was placed in the test arena in the presence of two identical objects (plastic shapes) and the time spent actively exploring the objects during a 5-minute test period (T1) was recorded. After 24 hours, each rat was again placed in the test arena for 5 minutes (T2) in the presence of one familiar object and one novel object, and the time spent exploring both objects was recorded. The Recognition Index was calculated as the percentage of total exploration time spent exploring the novel object during the retention session (T2), which provides the primary measure of cognitive function in this assay.
The Novel object recognition (NOR) paradigm is a rodent model of recognition learning memory retrieval and takes advantage of the spontaneous behavior of rodents to investigate a novel object compared with a familiar object. NOR has been employed extensively to indicate cognition-enhancing properties of drug candidates, predictive of therapeutic efficacy of positively-assaying drugs for reducing SCI symptoms in humans.

hippocampal slices = settings: male, Sprague-Dawley, rat
Monkey (Rhesus) = test: Delayed match-to-sample test; assay type: in vivo, Rhesus macaque; settings: for Minimum Effective Dose, delayed match-to-sample test: Monkey (Rhesus), PO
Protocol: Further elucidating the potent behavioral and cognitive effects of exemplary ampakines useful within the invention, additional studies using the well-known Monkey Delayed Match to Sample assay were conducted. CX1739 was evaluated using aged Rhesus macaque monkeys (18 to 33 years old), undertaking the delayed match-to-sample (DMTS) task. The stimuli included red, blue, or yellow rectangles. A trial was initiated by presentation of a sample rectangle composed of one of the three colors. The sample rectangle remained in view until the monkey touched within its borders to initiate a pre-programmed delay (retention) interval. Following the delay interval, two choice rectangles were presented, with one of the two choice colors being the color matching the stimulus and the other (incorrect) color as one of the two remaining colors. A correct (matching) choice was reinforced. Non-matching choices were neither reinforced nor punished. The duration for each delay interval was adjusted for each subject until three levels of group performance accuracy approximated zero delay (85-100% of trials answered correctly), short delay interval (75-84% correct), medium delay interval (65-74% correct), and long delay interval (55-64% correct). The inter-trial interval was 5 seconds and each session consisted of 96 trials.

[1] = system: non-selective alpha1 adrenergic receptor; test: Alpha1 adrenergic receptor radioligand binding; settings: 100 μM

Compound | d1 scores (discrimination index) compared to vehicle (Rat (Wistar); 0.3 mg/kg, 24 hour delay) | Minimum Effective Dose, novel object recognition memory (Rat (Wistar)) | Concentration at which seizure activity is seen in hippocampal slices (hippocampal slices) | Minimum Effective Dose, delayed match-to-sample test (Monkey (Rhesus)) | Preference for novel object exploration compared with positive control (Rat (Wistar); 0.03 mg/kg) | Inhibition of reference ligand binding, non-selective alpha1 adrenergic receptor [1] | Task accuracy with the Best Dose of each subject (Monkey (Rhesus); sessions initiated 45 min after administration)
O=C(c1ccc2nonc2c1)N1CCOCC1 [CX717, 1-(benzofurazan-5-ylcarbonyl)morpholine] | significant increase | 0.3 mg/kg | > 600 µM | 0.8 mg/kg |  |  | 
CN(C(=O)c1ccc2nonc2c1)C1CCOCC1 [CX1739, N-Methyl-N-tetrahydro-2H-pyran-4-yl-[2,1,3]-benzoxadiazole-5-carboxamide] |  | 0.03 mg/kg |  | 0.3 mg/kg | comparable to that of 3 mg/kg galantamine | 67% | statistically significant increase

From US20240100023A1, “Compositions and Methods For Treating Spinal Cord Injuries” (priority 2020, published 2024)
